Results taken from patent publication US20240009211A1, “PHARMACEUTICAL COMPOSITION FOR TREATMENT OF LUNG CANCER COMPRISING CANNABIDIOL AND ANTICANCER AGENT AS ACTIVE INGREDIENTS, AND USE THEREOF” (NEOCANNBIO CO., LTD., priority 2022, published 2024).
pIC50: −log10 of the molar value.

What was measured:
[1] = tested on: A549 cells; assay: Cancer cell toxicity of CBD, WST-8 cell survival; type: cell-based; settings: Homo sapiens, A549, 48 h
Method: Specifically, A549 cells, a lung cancer cell line, were seeded in 96-well plates at a concentration of 1×10^4 cells/well, cultured in a 37° C., 10% CO2 incubator for 24 hours, then treated with CBD in a concentration-dependent manner and cultured under the same conditions for 48 hours. After completion of culture, 1/10 of WST-8 solution (Quanti-Max™, BIOMAX, Korea) was added to the medium, and after additional culture at 37° C. for 1 hour, the cell survival rate was determined by measuring absorbance at 450 nm, and expressed as a percentage of the control without any treatment. The experiment was conducted independently and repeated three times.

[2] = tested on: A549 cells; assay: Anti-cancer agents with or without CBD, WST-8 cell survival; type: cell-based; settings: A549, 48 h
Method: After completion of culture, 1/10 of WST-8 solution (Quanti-Max™, BIOMAX, Korea) was added to the medium, and after additional culture at 37° C. for 1 hour, the cell survival rate was determined by measuring absorbance at 450 nm, and expressed as a percentage of the control without any treatment. The experiment was conducted independently and repeated three times.

[3] = tested on: A549 cells; assay: Apoptosis by Fluorescence Activated Cell Sorting (FACS); type: cell-based; settings: A549, combined treatment of etoposide and CBD compared to individual treatment
Excerpt: In addition, the apoptosis results of the combination treatment were re-validated using a Fluorescence Activated Cell Sorting (FACS) system.

[4] = tested on: A549 cells; assay: Western blotting of apoptosis- and autophagy-related proteins after combined treatment; type: cell-based; settings: A549, 24 h, etoposide combined with CBD (15 μM)
Method: After completion of culture, the cells were harvested and the proteins were quantified using the bradford assay (Bio-Rad, japan), and the proteins (30 ug/well) were separated by electrophoresis on NuPAGE 4-12% Bis-Tris gels (Invitrogen) and transferred to polyvinylidene difluoride (PVDF). Next, the PVDF membrane was reacted with a primary antibody (Monoclonal antibody, Cell signaling technology, USA) specific for PARP[Poly (ADP-ribose) polymerase], cleaved caspase9, cleaved caspase8, LC3B or GAPDH for 1 hour at room temperature, followed by reacting with an anti-rabbit secondary antibody (Cell signaling technology) for 1 hour. The antibodies bound to PVDF were visualized using ECL Advance Western Blotting Detection Reagents (GE Healthcare, UK) and LAS 4000 imaging system (Fujifilm, Japan).

[5] = tested on: A549 cells; assay: cells; settings: Homo sapiens, A549, 48 h
[6] = Homo sapiens, read-out: IC50 (μM), with CBD (15 μM)
[7] = Homo sapiens, read-out: IC50 (μM), without CBD
[8] = etoposide concentration-dependent

Row | Compound | IC50 [2, 6] [µM] | IC50 [2, 7] [µM] | also measured
1 | C=C(C)[C@@H]1CCC(C)=C[C@H]1c1c(O)cc(CCCCC)cc1O [CBD, 2-[(1R,6R)-3-methyl-6-prop-1-en-2-ylcyclohex-2-en-1-yl]-5-pentylbenzene-1,3-diol] | – | – | pIC50 [1]: 4.73
2 | COc1cc2nccc(Oc3ccc(NC(=O)C4(C(=O)Nc5ccc(F)cc5)CC4)cc3)c2cc1OC [Cabozantinib (XL184), Cabozantinib] | 4.14 | 8.29 | –
3 | N.N.O=C([O-])C1(C(=O)[O-])CCC1.[Pt+2] [Carboplatin] | – | – | IC50 ([2]; read-out: IC50 (μM), 48 h, with CBD, with CBD (15 μM)): > 100 µM
4 | COc1cc([C@@H]2c3cc4c(cc3[C@@H](O[C@@H]3O[C@@H]5CO[C@@H](C)O[C@H]5[C@H](O)[C@H]3O)[C@H]3COC(=O)[C@H]23)OCO4)cc(OC)c1O [Etoposide (VP-16), etoposide] | 51.4 | – | number of early apoptotic cells [3]: significantly increased; expression of Bcl-2 protein [4]: decreased; expression of autophagy-related protein LC3-II [4]: increased; expression of Bax protein [4, 8]: increased; expression of cleaved PARP protein [4, 8]: increased; expression of cleaved caspase8 protein [4, 8]: increased; expression of cleaved caspase9 protein [4, 8]: increased; pIC50 ([5]; read-out: cytotoxicity (IC50) of etoposide alone): 3.97; pIC50 ([5]; read-out: cytotoxicity (IC50) of etoposide upon combined treatment with CBD): 4.29
5 | COc1cc2nccc(Oc3ccc(NC(=O)NC4CC4)c(Cl)c3)c2cc1C(N)=O [Lenvatinib] | 16.9 | 19.9 | –
6 | CNC(=O)c1cc(Oc2ccc(NC(=O)Nc3ccc(Cl)c(C(F)(F)F)c3)c(F)c2)ccn1 [Regorafenib] | 4.11 | 5.27 | –
7 | CNC(=O)c1cc(Oc2ccc(NC(=O)Nc3ccc(Cl)c(C(F)(F)F)c3)cc2)ccn1 [Sorafenib] | 4.26 | 8.97 | –
8 | CCC1=C[C@@H]2CN(C1)Cc1c([nH]c3ccccc13)[C@@](C(=O)OC)(c1cc3c(cc1OC)N(C)[C@H]1[C@@](O)(C(=O)OC)[C@H](OC(C)=O)[C@]4(CC)C=CCN5CC[C@]31[C@@H]54)C2 [Vinorelbine] | 6.38 | 12.4 | –
